# Assay results from ChEMBL document CHEMBL3526037, “Evaluation of the relationship between sex, polymorphisms in CYP2C8 and CYP2C9, and pharmacokinetics of angiotensin receptor blockers” (Drug Metab Dispos, 2013).
# Key:
# Format in all cases: ADME, organism-based
# [1] = AUC in human plasma expressing CYP2C8*3 allele carrier polymorphism at 25 to 320 mg by LC/MS/MS analysis
# Homo sapiens [2] = organism: Homo sapiens; test: AUC in human plasma expressing CYP2C9*3 allele carrier polymorphism at 25 to 320 mg by LC/MS/MS analysis; settings: in vivo
# [3] = Cmax in human plasma expressing CYP2C8*4 allele carrier polymorphism at 25 to 320 mg by LC/MS/MS analysis
# [4] = Half life in women plasma at 25 to 320 mg by LC/MS/MS analysis; settings: female, human
# [5] = AUC in human plasma expressing CYP2C9*2 allele carrier polymorphism at 25 to 320 mg by LC/MS/MS analysis
# [6] = Half life in human plasma expressing CYP2C8*1/*1 polymorphism at 25 to 320 mg by LC/MS/MS analysis
# [7] = AUC in women plasma at 25 to 320 mg by LC/MS/MS analysis; settings: female, human
# [8] = Cmax in human plasma expressing CYP2C8*2 allele carrier polymorphism at 25 to 320 mg by LC/MS/MS analysis
# [9] = Tmax in human plasma expressing CYP2C8*2 allele carrier polymorphism at 25 to 320 mg by LC/MS/MS analysis
# [10] = Half life in men plasma at 25 to 320 mg by LC/MS/MS analysis; settings: male, human
# [11] = Half life in human plasma expressing CYP2C8*4 allele carrier polymorphism at 25 to 320 mg by LC/MS/MS analysis
# [12] = Tmax in human plasma expressing CYP2C8*3 allele carrier polymorphism at 25 to 320 mg by LC/MS/MS analysis
# Homo sapiens [13] = organism: Homo sapiens; test: Cmax in human plasma expressing CYP2C8*3 allele carrier polymorphism at 25 to 320 mg by LC/MS/MS analysis; settings: in vivo
# [14] = AUC in men plasma at 25 to 320 mg by LC/MS/MS analysis; settings: male, human
# [15] = AUC in human plasma expressing CYP2C8*4 allele carrier polymorphism at 25 to 320 mg by LC/MS/MS analysis
# [16] = Cmax in men plasma at 25 to 320 mg by LC/MS/MS analysis; settings: male, human
# [17] = Cmax in human plasma expressing CYP2C8*1/*1 polymorphism at 25 to 320 mg by LC/MS/MS analysis
# [18] = Tmax in human plasma expressing CYP2C8*1/*1 polymorphism at 25 to 320 mg by LC/MS/MS analysis
# [19] = Cmax in women plasma at 25 to 320 mg by LC/MS/MS analysis; settings: female, human
# [20] = Cmax in human plasma expressing CYP2C9*2 allele carrier polymorphism at 25 to 320 mg by LC/MS/MS analysis
# [21] = Tmax in women plasma at 25 to 320 mg by LC/MS/MS analysis; settings: female, human
# [22] = Tmax in human plasma expressing CYP2C9*1/*1 polymorphism at 25 to 320 mg by LC/MS/MS analysis
# [23] = Half life in human plasma expressing CYP2C8*3 allele carrier polymorphism at 25 to 320 mg by LC/MS/MS analysis
# [24] = Half life in human plasma expressing CYP2C9*3 allele carrier polymorphism at 25 to 320 mg by LC/MS/MS analysis
# [25] = AUC in human plasma expressing CYP2C8*2 allele carrier polymorphism at 25 to 320 mg by LC/MS/MS analysis
# [26] = Tmax in human plasma expressing CYP2C8*4 allele carrier polymorphism at 25 to 320 mg by LC/MS/MS analysis
# [27] = Half life in human plasma expressing CYP2C9*1/*1 polymorphism at 25 to 320 mg by LC/MS/MS analysis
# [28] = AUC in human plasma expressing CYP2C8*1/*1 polymorphism at 25 to 320 mg by LC/MS/MS analysis
# [29] = Cmax in human plasma expressing CYP2C9*1/*1 polymorphism at 25 to 320 mg by LC/MS/MS analysis
# [30] = Tmax in men plasma at 25 to 320 mg by LC/MS/MS analysis; settings: male, human
# [31] = AUC in human plasma expressing CYP2C9*1/*1 polymorphism at 25 to 320 mg by LC/MS/MS analysis
# [32] = Tmax in human plasma expressing CYP2C9*3 allele carrier polymorphism at 25 to 320 mg by LC/MS/MS analysis
# [33] = Tmax in human plasma expressing CYP2C9*2 allele carrier polymorphism at 25 to 320 mg by LC/MS/MS analysis
# [34] = Cmax in human plasma expressing CYP2C9*3 allele carrier polymorphism at 25 to 320 mg by LC/MS/MS analysis
# [35] = Half life in human plasma expressing CYP2C8*1/*1 polymorphism at 80 mg by LC/MS/MS analysis
# [36] = AUC in women plasma at 80 mg by LC/MS/MS analysis; settings: female, human
# [37] = Cmax in human plasma expressing CYP2C9*3 allele carrier polymorphism at 80 mg by LC/MS/MS analysis; set-up: dose 80 mg
# [38] = AUC in human plasma expressing CYP2C8*1/*1 polymorphism at 80 mg by LC/MS/MS analysis
# [39] = Half life in men plasma at 80 mg by LC/MS/MS analysis; settings: male, human
# [40] = Tmax in human plasma expressing CYP2C9*1/*1 polymorphism at 80 mg by LC/MS/MS analysis
# [41] = Half life in human plasma expressing CYP2C8*2 allele carrier polymorphism at 80 mg by LC/MS/MS analysis
# [42] = Tmax in human plasma expressing CYP2C8*1/*1 polymorphism at 80 mg by LC/MS/MS analysis
# [43] = AUC in human plasma expressing CYP2C9*1/*1 polymorphism at 80 mg by LC/MS/MS analysis
# [44] = AUC in men plasma at 80 mg by LC/MS/MS analysis; settings: male, human
# [45] = Tmax in women plasma at 80 mg by LC/MS/MS analysis; settings: female, human
# [46] = Cmax in human plasma expressing CYP2C8*3 allele carrier polymorphism at 80 mg by LC/MS/MS analysis; set-up: dose 80 mg
# [47] = Tmax in human plasma expressing CYP2C8*2 allele carrier polymorphism at 80 mg by LC/MS/MS analysis
# [48] = AUC in human plasma expressing CYP2C8*2 allele carrier polymorphism at 80 mg by LC/MS/MS analysis
# [49] = Tmax in men plasma at 80 mg by LC/MS/MS analysis; settings: male, human
# [50] = AUC in human plasma expressing CYP2C9*3 allele carrier polymorphism at 80 mg by LC/MS/MS analysis
# [51] = Cmax in human plasma expressing CYP2C8*2 allele carrier polymorphism at 80 mg by LC/MS/MS analysis; set-up: dose 80 mg
# [52] = Cmax in human plasma expressing CYP2C9*1/*1 polymorphism at 80 mg by LC/MS/MS analysis; set-up: dose 80 mg
# [53] = Cmax in men plasma at 80 mg by LC/MS/MS analysis; set-up: dose 80 mg; settings: male, human
# [54] = AUC in human plasma expressing CYP2C8*3 allele carrier polymorphism at 80 mg by LC/MS/MS analysis
# [55] = Tmax in human plasma expressing CYP2C8*3 allele carrier polymorphism at 80 mg by LC/MS/MS analysis
# [56] = Half life in human plasma expressing CYP2C8*3 allele carrier polymorphism at 80 mg by LC/MS/MS analysis
# [57] = Cmax in human plasma expressing CYP2C8*1/*1 polymorphism at 80 mg by LC/MS/MS analysis; set-up: dose 80 mg
# [58] = Cmax in women plasma at 80 mg by LC/MS/MS analysis; set-up: dose 80 mg; settings: female, human
# [59] = Half life in human plasma expressing CYP2C9*3 allele carrier polymorphism at 80 mg by LC/MS/MS analysis
# [60] = Tmax in human plasma expressing CYP2C9*3 allele carrier polymorphism at 80 mg by LC/MS/MS analysis
# [61] = Half life in women plasma at 80 mg by LC/MS/MS analysis; settings: female, human
# [62] = Half life in human plasma expressing CYP2C9*1/*1 polymorphism at 80 mg by LC/MS/MS analysis
compound,measurement,setting,value
CCCCC(=O)N(Cc1ccc(-c2ccccc2-c2nnn[nH]2)cc1)[C@H](C(=O)O)C(C)C,AUC,[1],37400 ng·h/mL
same,AUC,Homo sapiens [2],31449 ng·h/mL
same,Cmax,[3],4860 ng/mL
same,half-life,[4],9.4 h
same,AUC,[5],38800 ng·h/mL
same,half-life,[6],9.3 h
same,AUC,[7],38600 ng·h/mL
same,Cmax,[8],6140 ng/mL
same,Tmax,[9],3.1 h
same,half-life,[10],9.1 h
same,half-life,[11],7.6 h
same,Tmax,[12],3 h
same,Cmax,Homo sapiens [13],4711 ng/mL
same,AUC,[14],38800 ng·h/mL
same,AUC,[15],39600 ng·h/mL
same,Cmax,[16],4590 ng/mL
same,Cmax,[17],4550 ng/mL
same,Tmax,[18],3.3 h
same,Cmax,[19],4910 ng/mL
same,Cmax,[20],4840 ng/mL
same,Tmax,[21],3.2 h
same,Tmax,[22],3.3 h
same,half-life,[23],9.4 h
same,half-life,[24],9.9 h
same,AUC,[25],55100 ng·h/mL
same,Tmax,[26],2.8 h
same,half-life,[27],9.1 h
same,AUC,[28],36500 ng·h/mL
same,Cmax,[29],4880 ng/mL
same,Tmax,[30],3.2 h
same,AUC,[31],40600 ng·h/mL
same,Tmax,[32],3 h
same,Tmax,[33],3 h
same,Cmax,[34],4010 ng/mL
CCCc1nc2c(C)cc(-c3nc4ccccc4n3C)cc2n1Cc1ccc(-c2ccccc2C(=O)O)cc1,half-life,[35],28.7 h
same,AUC,[36],3680 ng·h/mL
same,Cmax,[37],510 ng/mL
same,AUC,[38],3010 ng·h/mL
same,half-life,[39],25.1 h
same,Tmax,[40],1.4 h
same,half-life,[41],29.1 h
same,Tmax,[42],1.4 h
same,AUC,[43],3130 ng·h/mL
same,AUC,[44],2470 ng·h/mL
same,Tmax,[45],1.4 h
same,Cmax,[46],494 ng/mL
same,Tmax,[47],1.3 h
same,AUC,[48],3680 ng·h/mL
same,Tmax,[49],1.3 h
same,AUC,[50],3400 ng·h/mL
same,Cmax,[51],498 ng/mL
same,Cmax,[52],446 ng/mL
same,Cmax,[53],282 ng/mL
same,AUC,[54],3230 ng·h/mL
same,Tmax,[55],1 h
same,half-life,[56],33.9 h
same,Cmax,[57],437 ng/mL
same,Cmax,[58],590 ng/mL
same,half-life,[59],30.1 h
same,Tmax,[60],1.1 h
same,half-life,[61],33.1 h
same,half-life,[62],29.7 h
